According to US20040006070A1, “Intraspinal continuous infusion of midazolam hydrochloride for the treatment of pain” (priority 2002, published 2004):
Where a name gives a salt, the structure may show the parent alone.

Test: Bloodwork: complete blood count, electrolytes, extended blood chemistry
Format: in vivo, sheep
Settings: for Total Bili: ref 0.14-0.32; for K+: ref 3.9-5.4; for Phos: ref 5-7.3; for Total Prot: ref 6-7.9
Procedure: Indirect blood pressure, pulse recording, pain testing (mechanical stimulus device, cold and warm water baths see description in procedure) and weight were taken on days 1, 3, 7, 15, 22, 29, 36, and 43. Venous blood samples (15 ml drawn from the jugular vein with Vacutainer brand blood collection tubes) for complete blood count, electrolytes, and extended blood chemistry were drawn on days 1, 15, and 43 (mild procedure only light hand restraint necessary).

[1] = sheep Chicken Hawk #87, 5 mg/day, Baseline
[2] = sheep Chicken Hawk #87, 5 mg/day, Day 1

With `Cc1ncc2n1-c1ccc(Cl)cc1C(c1ccccc1F)=NC2` [Midazolam, midazolam hydrochloride] the MCH (sheep #498, 10 mg/day, Day 43) was 9.3 pg, the MCHC (sheep #498, 10 mg/day, Day 43) was 30.3 g/dL and the MCV (sheep #498, 10 mg/day, Day 43) was 30.9 fL. For the same compound, the “Na+” value (sheep #498, 10 mg/day, Day 43) was 148 mEq/l, the RBC (sheep #498, 10 mg/day, Day 43) was 1.003e+07 µL⁻¹ and the WBC (sheep #498, 10 mg/day, Day 43) was 9700 µL⁻¹. For the same compound, the “Total Bili” value (sheep #498, 10 mg/day, Day 43) was 0.1 mg/dL, the Creatinine (sheep #498, 10 mg/day, Day 43, ref 1-2.7) was 1.5 mg/dL and the Albumin (sheep #498, 10 mg/day, Day 43, ref 2.4-3) was 3.6 g/dL. The “K+” value (sheep #498, 10 mg/day, Day 43) was 4.0 mEq/l, the Phos (sheep #498, 10 mg/day, Day 43) was 5.8 Mg/dl and the “Total Prot” value (sheep #498, 10 mg/day, Day 43) was 6.1 g/dL. The “Platlet Count” value (sheep #498, 10 mg/day, Day 43, result in words) was “Ade-”, the ALT (sheep #518, 5 mg/day, Day 1) was 12.0 U/L and the AST (sheep #518, 5 mg/day, Day 1) was 112 U/L. For the same compound, the “Alk Phos” value (sheep #518, 5 mg/day, Day 1) was 157 U/L, the BUN (sheep #518, 5 mg/day, Day 1) was 15 mg/dL and the CPK (sheep #518, 5 mg/day, Day 1) was 148 U/L. The Cholesterol (sheep #518, 5 mg/day, Day 1) was 96 mg/dL, the “Differential Count: Eosin” value (sheep #518, 5 mg/day, Day 1) was 1% and the “Differential Count: Lymph” value (sheep #518, 5 mg/day, Day 1) was 29%. For the same compound, the “Differential Count: Seg” value (sheep #518, 5 mg/day, Day 1) was 70%, the “Gamma GT” value (sheep #518, 5 mg/day, Day 1) was 79 U/L and the Glucose (sheep #518, 5 mg/day, Day 1) was 8.8 mg/dL. It also gave a Hct (sheep #518, 5 mg/day, Day 1) of 35.0%, a Hgb (sheep #518, 5 mg/day, Day 1) of 12.2 g/dL and an MCH (sheep #518, 5 mg/day, Day 1) of 9.6 pg. For the same compound, the MCHC (sheep #518, 5 mg/day, Day 1) was 31.4 G/dl, the MCV (sheep #518, 5 mg/day, Day 1) was 30.6 fL and the “Na+” value (sheep #518, 5 mg/day, Day 1) was 154 mEq/l. The “Platlet Count” value (sheep #518, 5 mg/day, Day 1) was 642000 µL⁻¹, the RBC (sheep #518, 5 mg/day, Day 1) was 1.144e+07 µL⁻¹ and the WBC (sheep #518, 5 mg/day, Day 1) was 8400 µL⁻¹. For the same compound, the “Total Bili” value (sheep #518, 5 mg/day, Day 1) was 0.2 mg/dL, the Creatinine (sheep #518, 5 mg/day, Day 1, ref 1-2.7) was 1.1 mg/dL and the Albumin (sheep #518, 5 mg/day, Day 1, ref 2.4-3) was 3.6 G/dl. The “K+” value (sheep #518, 5 mg/day, Day 1) was 4.9 mEq/l, the Phos (sheep #518, 5 mg/day, Day 1) was 7.2 mg/dL and the “Total Prot” value (sheep #518, 5 mg/day, Day 1) was 7.0 G/dl. For the same compound, the ALT (sheep #518, 5 mg/day, Day 3) was 10.0 U/L, the AST (sheep #518, 5 mg/day, Day 3) was 99 U/L and the “Alk Phos” value (sheep #518, 5 mg/day, Day 3) was 99 U/L. It also gave a BUN (sheep #518, 5 mg/day, Day 3) of 5 mg/dL, a CPK (sheep #518, 5 mg/day, Day 3) of 834 U/L and a Cholesterol (sheep #518, 5 mg/day, Day 3) of 87 mg/dL. The “Differential Count: Atyp lym” value (sheep #518, 5 mg/day, Day 3) was 1%, the “Differential Count: Eosin” value (sheep #518, 5 mg/day, Day 3) was 1% and the “Differential Count: Lymph” value (sheep #518, 5 mg/day, Day 3) was 47%. For the same compound, the “Differential Count: Seg” value (sheep #518, 5 mg/day, Day 3) was 51%, the “Gamma GT” value (sheep #518, 5 mg/day, Day 3) was 79 U/L and the Glucose (sheep #518, 5 mg/day, Day 3) was 122 mg/dL. It also gave a Hct (sheep #518, 5 mg/day, Day 3) of 33.0%, a Hgb (sheep #518, 5 mg/day, Day 3) of 11.3 g/dL and an MCH (sheep #518, 5 mg/day, Day 3) of 9.3 pg. The MCHC (sheep #518, 5 mg/day, Day 3) was 30.1 G/dl, the MCV (sheep #518, 5 mg/day, Day 3) was 30.7 fL and the “Na+” value (sheep #518, 5 mg/day, Day 3) was 151 mEq/l. The “Platlet Count” value (sheep #518, 5 mg/day, Day 3) was 546000 µL⁻¹, the RBC (sheep #518, 5 mg/day, Day 3) was 1.075e+07 µL⁻¹ and the WBC (sheep #518, 5 mg/day, Day 3) was 6400 µL⁻¹. For the same compound, the “Total Bili” value (sheep #518, 5 mg/day, Day 3) was 0.1 mg/dL, the Creatinine (sheep #518, 5 mg/day, Day 3, ref 1-2.7) was 1.4 mg/dL and the Albumin (sheep #518, 5 mg/day, Day 3, ref 2.4-3) was 3.8 G/dl. The “K+” value (sheep #518, 5 mg/day, Day 3) was 4.4 mEq/l, the Phos (sheep #518, 5 mg/day, Day 3) was 5.7 mg/dL and the “Total Prot” value (sheep #518, 5 mg/day, Day 3) was 6.6 G/dl. The ALT (sheep #518, 5 mg/day, Day 15) was 13.0 U/L, the AST (sheep #518, 5 mg/day, Day 15) was 74 U/L and the “Alk Phos” value (sheep #518, 5 mg/day, Day 15) was 100 U/L. It also gave a BUN (sheep #518, 5 mg/day, Day 15) of 13 mg/dL, a CPK (sheep #518, 5 mg/day, Day 15) of 172 U/L and a Cholesterol (sheep #518, 5 mg/day, Day 15) of 83 mg/dL. For the same compound, the “Differential Count: Eosin” value (sheep #518, 5 mg/day, Day 15) was 5%, the “Differential Count: Lymph” value (sheep #518, 5 mg/day, Day 15) was 62% and the “Differential Count: Seg” value (sheep #518, 5 mg/day, Day 15) was 33%. For the same compound, the “Gamma GT” value (sheep #518, 5 mg/day, Day 15) was 90 U/L, the Glucose (sheep #518, 5 mg/day, Day 15) was 74 mg/dL and the Hct (sheep #518, 5 mg/day, Day 15) was 33.0%. It also gave a Hgb (sheep #518, 5 mg/day, Day 15) of 11.6 g/dL, an MCH (sheep #518, 5 mg/day, Day 15) of 9.6 pg and an MCHC (sheep #518, 5 mg/day, Day 15) of 31.3 G/dl. For the same compound, the MCV (sheep #518, 5 mg/day, Day 15) was 30.7 fL, the “Na+” value (sheep #518, 5 mg/day, Day 15) was 151 mEq/l and the “Platlet Count” value (sheep #518, 5 mg/day, Day 15) was 533000 µL⁻¹. The RBC (sheep #518, 5 mg/day, Day 15) was 1.208e+07 µL⁻¹, the WBC (sheep #518, 5 mg/day, Day 15) was 5300 µL⁻¹ and the “Total Bili” value (sheep #518, 5 mg/day, Day 15) was 0.1 mg/dL. The Creatinine (sheep #518, 5 mg/day, Day 15, ref 1-2.7) was 1.6 mg/dL, the Albumin (sheep #518, 5 mg/day, Day 15, ref 2.4-3) was 4.1 G/dl and the “K+” value (sheep #518, 5 mg/day, Day 15) was 4.6 mEq/l. The Phos (sheep #518, 5 mg/day, Day 15) was 5.1 mg/dL, the “Total Prot” value (sheep #518, 5 mg/day, Day 15) was 6.7 G/dl and the ALT (sheep #518, 5 mg/day, Day 43) was 12.0 U/L. The AST (sheep #518, 5 mg/day, Day 43) was 76 U/L, the “Alk Phos” value (sheep #518, 5 mg/day, Day 43) was 89 U/L and the BUN (sheep #518, 5 mg/day, Day 43) was 7 mg/dL. The CPK (sheep #518, 5 mg/day, Day 43) was 787 U/L, the Cholesterol (sheep #518, 5 mg/day, Day 43) was 69 mg/dL and the “Differential Count: Atyp lym” value (sheep #518, 5 mg/day, Day 43) was 1%. For the same compound, the “Differential Count: Eosin” value (sheep #518, 5 mg/day, Day 43) was 4%, the “Differential Count: Lymph” value (sheep #518, 5 mg/day, Day 43) was 48% and the “Differential Count: Seg” value (sheep #518, 5 mg/day, Day 43) was 47%. The “Gamma GT” value (sheep #518, 5 mg/day, Day 43) was 68 U/L, the Glucose (sheep #518, 5 mg/day, Day 43) was 89 mg/dL and the Hct (sheep #518, 5 mg/day, Day 43) was 44.6%. The Hgb (sheep #518, 5 mg/day, Day 43) was 13.7 g/dL, the MCH (sheep #518, 5 mg/day, Day 43) was 9.6 pg and the MCHC (sheep #518, 5 mg/day, Day 43) was 30.7 G/dl. For the same compound, the MCV (sheep #518, 5 mg/day, Day 43) was 31.1 fL, the “Na+” value (sheep #518, 5 mg/day, Day 43) was 152 mEq/l and the “Platlet Count” value (sheep #518, 5 mg/day, Day 43) was 448000 µL⁻¹. For the same compound, the RBC (sheep #518, 5 mg/day, Day 43) was 1.254e+07 µL⁻¹, the WBC (sheep #518, 5 mg/day, Day 43) was 4800 µL⁻¹ and the “Total Bili” value (sheep #518, 5 mg/day, Day 43) was 0.1 mg/dL. For the same compound, the Creatinine (sheep #518, 5 mg/day, Day 43, ref 1-2.7) was 1.7 mg/dL, the Albumin (sheep #518, 5 mg/day, Day 43, ref 2.4-3) was 3.5 G/dl and the “K+” value (sheep #518, 5 mg/day, Day 43) was 4.6 mEq/l. The Phos (sheep #518, 5 mg/day, Day 43) was 6.4 mg/dL, the “Total Prot” value (sheep #518, 5 mg/day, Day 43) was 6.2 G/dl and the “Differential Count: Atyp lym” value [1] was 0%. The “Differential Count: Baso” value [1] was 0%, the “Differential Count: Eosin” value [1] was 2% and the “Differential Count: Lymph” value [1] was 41%. The “Differential Count: Mono” value [1] was 4%, the “Differential Count: Seg” value [1] was 53% and the Hct [1] was 31.5%. The Hgb [1] was 10.8 g/dL, the MCH [1] was 11.0 pg and the MCHC [1] was 34.2 g/dL. The MCV [1] was 32.3 fL, the “Platlet Count” value [1] was 848000 µL⁻¹ and the RBC [1] was 9.77e+06 µL⁻¹. The WBC [1] was 6180 µL⁻¹, the ALT [2] was 4 U/L and the AST [2] was 63 U/L. The Albumin [2] was 3.2 g/dL, the “Alk Phos” value [2] was 54 U/L and the BUN [2] was 14 mg/dL. It also gave a CPK [2] of 163 U/L, a Cholesterol [2] of 71 mg/dL and a Creatinine [2] of 1.3 mg/dL. For the same compound, the “Differential Count: Atyp lym” value [2] was 0%, the “Differential Count: Baso” value [2] was 0% and the “Differential Count: Eosin” value [2] was 2%. For the same compound, the “Differential Count: Lymph” value [2] was 55%, the “Differential Count: Mono” value [2] was 7% and the “Differential Count: Seg” value [2] was 36%. The “Gamma GT” value [2] was 55 U/L.
